Test results from ChEMBL document CHEMBL1201862, “PubChem BioAssay data set” (2004).
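Assay format: 96-well plates, 48-hour exposure. At the GI50, growth is halved.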 Activity calls are given as the source filed them. Rule as the data show it: active = GI50 up to about 1.1 µM and inactive = higher.

Key:
Assay in all cases: inhibition of tumour cell growth, NCI panel, 48 h
U-251 = system: U-251
UO-31 = system: UO-31
NCI-H522 = system: NCI-H522
SK-MEL-28 = system: SK-MEL-28
DU-145 = system: DU-145
HOP-92 = system: HOP-92
NCI-H460 = system: NCI-H460
Hs-578T = system: Hs-578T
COLO 205 = system: COLO 205
MDA-MB-231 = system: MDA-MB-231
A549 = system: A549
UACC-257 = system: UACC-257
A498 = system: A498
HCC 2998 = system: HCC 2998
SF-539 = system: SF-539
MDA-MB-435 = system: MDA-MB-435
HL-60 = system: HL-60
Malme-3M = system: Malme-3M
HOP-62 = system: HOP-62

CC(=O)Oc1cc2c(cc1OC(C)=O)[C@H]1CC[C@]3(C)[C@@H](OC(C)=O)CC[C@H]3[C@@H]1CC2
GI50 (U-251): 4.95 µM (inactive)
GI50 (UO-31): 2.19 µM (inactive)
GI50 (NCI-H522): 1.16 µM (inactive)
GI50 (SK-MEL-28): 4.15 µM (inactive)
GI50 (DU-145): 3.15 µM (inactive)
GI50 (HOP-92): 1.1 µM (active)
GI50 (NCI-H460): 8.57 µM (inactive)
GI50 (Hs-578T): 1.87 µM (inactive)
GI50 (COLO 205): 3.43 µM (inactive)
GI50 (MDA-MB-231): 7.41 µM (inactive)
GI50 (A549): 7.96 µM (inactive)
GI50 (UACC-257): 9.66 µM (inactive)
GI50 (A498): 11.8 µM (inactive)
GI50 (HCC 2998): 7.71 µM (inactive)

CC1(C)C=[N+]([O-])C(C)(C)N1
GI50 (U-251): > 100 µM (inactive)
GI50 (UO-31): > 100 µM (inactive)
GI50 (SF-539): > 100 µM (inactive)
GI50 (SK-MEL-28): > 100 µM (inactive)
GI50 (DU-145): > 100 µM (inactive)
GI50 (MDA-MB-435): > 100 µM (inactive)
GI50 (HOP-92): > 100 µM (inactive)
GI50 (HL-60): > 100 µM (inactive)
GI50 (NCI-H460): > 100 µM (inactive)
GI50 (Hs-578T): > 100 µM (inactive)
GI50 (Malme-3M): > 100 µM (inactive)
GI50 (COLO 205): > 100 µM (inactive)
GI50 (MDA-MB-231): > 100 µM (inactive)
GI50 (A549): > 100 µM (inactive)
GI50 (UACC-257): > 100 µM (inactive)
GI50 (HCC 2998): > 100 µM (inactive)
GI50 (HOP-62): > 100 µM (inactive)

CC(=O)Oc1ccc2c(c1OC(C)=O)CCC1C2=CC[C@]2(C)C(=O)CCC12 (stereo partly specified)
GI50 (UO-31): 9.57 µM (inactive)
GI50 (SF-539): 14.2 µM (inactive)
GI50 (NCI-H522): 1.82 µM (inactive)
GI50 (SK-MEL-28): 9.12 µM (inactive)
GI50 (DU-145): 15.7 µM (inactive)
GI50 (MDA-MB-435): 4.45 µM (inactive)
GI50 (HOP-92): 5.15 µM (inactive)
GI50 (HL-60): 6.89 µM (inactive)
GI50 (NCI-H460): 16.4 µM (inactive)
GI50 (Hs-578T): 19.6 µM (inactive)
GI50 (Malme-3M): 13.8 µM (inactive)
GI50 (COLO 205): 14.5 µM (inactive)
GI50 (MDA-MB-231): 14.3 µM (inactive)
GI50 (A549): 16 µM (inactive)
GI50 (UACC-257): 25.6 µM (inactive)
GI50 (HOP-62): 19.7 µM (inactive)

O=C1CS(=O)(=O)C(c2cccc(Oc3ccccc3)c2)N1c1cc(Cl)ccc1Cl (stereo unspecified)
GI50 (U-251): 15.7 µM (inactive)
GI50 (UO-31): 20.1 µM (inactive)
GI50 (SF-539): 21 µM (inactive)
GI50 (NCI-H522): 23.7 µM (inactive)
GI50 (SK-MEL-28): 26.5 µM (inactive)
GI50 (DU-145): 17.9 µM (inactive)
GI50 (MDA-MB-435): 12.1 µM (inactive)
GI50 (HOP-92): 18.2 µM (inactive)
GI50 (HL-60): 34.2 µM (inactive)
GI50 (NCI-H460): 21.9 µM (inactive)
GI50 (Hs-578T): 33.3 µM (inactive)
GI50 (Malme-3M): 47 µM (inactive)
GI50 (COLO 205): 30.2 µM (inactive)
GI50 (MDA-MB-231): 17.5 µM (inactive)
GI50 (A549): 38.2 µM (inactive)
GI50 (UACC-257): 23.1 µM (inactive)
GI50 (HCC 2998): 18.8 µM (inactive)

NC(Cc1ccc2nc3c4ccccc4c(=O)cc-3oc2c1)C(=O)O (stereo unspecified)
GI50 (U-251): > 100 µM (inactive)
GI50 (UO-31): > 100 µM (inactive)
GI50 (SF-539): > 100 µM (inactive)
GI50 (SK-MEL-28): > 100 µM (inactive)
GI50 (DU-145): > 100 µM (inactive)
GI50 (MDA-MB-435): 18.2 µM (inactive)
GI50 (HOP-92): > 100 µM (inactive)
GI50 (HL-60): > 100 µM (inactive)
GI50 (NCI-H460): > 100 µM (inactive)
GI50 (Hs-578T): 56.1 µM (inactive)
GI50 (Malme-3M): 14.8 µM (inactive)
GI50 (COLO 205): 20.9 µM (inactive)
GI50 (MDA-MB-231): > 100 µM (inactive)
GI50 (A549): 44.2 µM (inactive)
GI50 (UACC-257): 72.1 µM (inactive)
GI50 (HCC 2998): > 100 µM (inactive)
GI50 (HOP-62): > 100 µM (inactive)

COC(=O)C(=O)C(C(=O)C(=O)Nc1ccccc1C(=O)OC)c1nc2ccc(C(=O)c3ccccc3)cc2nc1O (stereo unspecified)
GI50 (U-251): > 100 µM (inactive)
GI50 (UO-31): 31.7 µM (inactive)
GI50 (SF-539): > 100 µM (inactive)
GI50 (NCI-H522): 24.1 µM (inactive)
GI50 (SK-MEL-28): 90.2 µM (inactive)
GI50 (MDA-MB-435): 38.9 µM (inactive)
GI50 (HOP-92): > 100 µM (inactive)
GI50 (HL-60): 41 µM (inactive)
GI50 (NCI-H460): 51.3 µM (inactive)
GI50 (Hs-578T): 33.2 µM (inactive)
GI50 (Malme-3M): 76.9 µM (inactive)
GI50 (MDA-MB-231): 76.4 µM (inactive)
GI50 (A549): > 100 µM (inactive)
GI50 (UACC-257): > 100 µM (inactive)
GI50 (A498): 81.5 µM (inactive)
GI50 (HOP-62): 55 µM (inactive)

C[n+]1c2ccc(Cl)cc2nc2cc(-c3ccccc3)ccc21
GI50 (U-251): 5.21 µM (inactive)
GI50 (UO-31): 21.3 µM (inactive)
GI50 (SF-539): 15.8 µM (inactive)
GI50 (NCI-H522): 16 µM (inactive)
GI50 (SK-MEL-28): 20.1 µM (inactive)
GI50 (DU-145): 22.5 µM (inactive)
GI50 (MDA-MB-435): 1.77 µM (inactive)
GI50 (HL-60): 3.06 µM (inactive)
GI50 (NCI-H460): 14.9 µM (inactive)
GI50 (Hs-578T): 25.5 µM (inactive)
GI50 (Malme-3M): 19.4 µM (inactive)
GI50 (COLO 205): 3.58 µM (inactive)
GI50 (MDA-MB-231): 8.63 µM (inactive)
GI50 (A549): 4.81 µM (inactive)
GI50 (UACC-257): 15.6 µM (inactive)
GI50 (HCC 2998): 4.95 µM (inactive)
GI50 (HOP-62): 23 µM (inactive)

COc1cc2c(cc1OC)C1=Cc3cc(OC)c(OC)cc3C(C)N1C=C2 (stereo unspecified)
GI50 (U-251): 37.2 µM (inactive)
GI50 (UO-31): 55.1 µM (inactive)
GI50 (SF-539): > 100 µM (inactive)
GI50 (SK-MEL-28): 63.2 µM (inactive)
GI50 (DU-145): > 100 µM (inactive)
GI50 (MDA-MB-435): 41.8 µM (inactive)
GI50 (HOP-92): > 100 µM (inactive)
GI50 (HL-60): > 100 µM (inactive)
GI50 (NCI-H460): 47.1 µM (inactive)
GI50 (Hs-578T): 74 µM (inactive)
GI50 (Malme-3M): > 100 µM (inactive)
GI50 (COLO 205): 22 µM (inactive)
GI50 (A549): > 100 µM (inactive)
GI50 (UACC-257): 33.7 µM (inactive)
GI50 (A498): 82.6 µM (inactive)
GI50 (HCC 2998): > 100 µM (inactive)
GI50 (HOP-62): 44.2 µM (inactive)
